Holding throughout (assay type): biochemical
Assay [1] concerns Gramicidin A (gA) channels in DPhPC BLM. The assay is described as follows: High speed solution exchange with gA-functionalized BLM, sub-ms conductance protocol (Example 2). Particulars: recording buffer switched to recording buffer + 1 M Ca^2+, 0.9 ms protocol, 10 kHz filter. The source says: Electrophysiological data was acquired with a HEKA EPC-10 Single patch clamp amplifier and digitized with Patchmaster software (v. 2.73). Single channel recordings were obtained at a −100 mV holding voltage, digitized at 20 kHz and filtered at 1 kHz, unless otherwise stated. Sub-millisecond conductance measurements were collected at 200 kHz and filtered at 10 kHz. Noise values were obtained from the Noise Panel present in Patchmaster software which measures instrument noise through the amplifier's 4-pole, low-pass Bessel filter.
Membrane conductance values were evaluated against a 21-point reference protocol that applied a 50 ms voltage pulses ranging from −100 to +100 mV, in 10 mV intervals. Each pulse was preceded by a 10 ms rest at a holding voltage of 0 mV and followed by a 1000 ms rest (0 mV) to ensure the bilayer capacitance was fully discharged before proceeding to the next voltage step. […]
Fast solution switching experiments were performed with a High Speed Solution Exchange-2/3 system (ALA Scientific, New York), A BLM pipette was positioned about 1 mm away and equidistant from the outflow of two tubes approximately perpendicular from one another. […] The solution composition perfusing across the BLM pipette was rapidly switched using a solenoid pinch valve and the membrane conductance was measured using the patch clamp amplifier. Membrane conductance was assessed as described above. […]

The test system is the same in assay [2]. The assay is described as follows: Fast solution exchange with gA-functionalized BLMs, conductance protocol F (Example 1). The following applies: gA-functionalized BLM on 3 μm aperture pipette; Ca^2+ switched from 0 to 1 M. How it is done: (§1) All electrophysiological measurements were performed using a HEKA Electronik EPC-10 Double patch clamp amplifier (Germany) using PatchMaster software (v2.73). Data were digitized at 20 kHz and filtered at 1 kHz, unless otherwise specified. BLM conductance was measured using several multi-step voltage protocols. All protocols were evaluated against a 21-point reference protocol that applied 50 ms potential pulses ranging from −100 to +100 mV, in 10 mV intervals. Each pulse was preceded by a 10 ms rest at a holding potential of 0 mV and followed by a 1000 ms rest to ensure the bilayer capacitance was fully discharged before proceeding to the next potential step. The slope of the i-V curve is the BLM conductance, GBLM (pA/mV), and the resistance, RBLM, is (GBLM)^−1.
A 1 mg/mL stock solution of gA in EtOH was prepared and stored at 4° C. for up to two weeks. […]
A dual-port perfusion apparatus was fabricated from a two-barrel theta capillary. […] The 10-90% response time of the solution exchange was determined by laterally translating the theta capillary tip to alternately deliver recording buffer and Ca^2+ solution to the pipette tip, which was positioned ˜200 μm from the outlet of the theta capillary tip, while monitoring the change in current through the pipette aperture at a holding potential of −20 mV. […]

Assay [3] is described as follows: Single channel recording of gA in DPhPC BLM. As for the experimental part:
as §1
A 1 mg/mL stock solution of gA in EtOH was prepared and stored at 4° C. for up to two weeks. For use, the solution was diluted to 1 μg/mL in EtOH and 0.5-1 μL aliquots were injected into the bath solution at a position ca. 5 mm from the pipette tip while monitoring current at a holding potential of −100 mV. […]
Gramicidin A dimerizes in lipid bilayers to form non-selective, cation-permeable ICs and is widely used as a model IC for illustrating BLM formation. […] The conductance of the BLM was measured using protocols A and E with recording buffer on both sides of the membrane. […]

In the case of `[Ca+2].[Cl-].[Cl-]` [Ca^2+, CaCl2], the “decrease in membrane conductance upon application of 1 M Ca^2+” value in assay [1] was approximately 60%. Also, the “decrease in normalized BLM conductance using the mean of a 1 s window before and after solution exchange” value in assay [2] came to 81.9±13.5%.
With Gramicidin A [gA], the “increase in membrane conductance by an individual gA ion channel” value in assay [3] (1 M KCl solutions) was approximately 20 fA/mV. Moreover, the “current contributed by each gA channel” value in assay [3] (holding potential −100 mV, recording buffer 1 M KCl on both sides, DPhPC BLM, 3 μm aperture) is approximately 2 pA.

The record behind these values is patent US11073508B2, “Rapid conductance based ion channel analysis” (Arizona Board of Regents on Behalf of the University of …, priority 2017, dated 2021).
